For one test, the system named is HCT 116 cells. Put plainly: Viability assay in HCT 116 cells (CellTiter-Glo Luminescent Cell Viability Assay). The test is classed as cell-based. Particulars: HCT 116 human colon carcinoma cells, 5 days (120 h) incubation, ATP luminescence. How it is done: Viability Assay in HCT 116 Cells
A viability assay was performed using the CellTiter-Glo® Luminescent Cell Viability Assay (see Promega Corporation's Technical Bulletin No. 288, pp. 1-11 [revised February 2004] which is hereby incorporated by reference in its entirety). This assay is a homogeneous method of determining the number of viable cells in culture based on quantitation of the ATP present, an indicator of metabolically active cells. The assay is designed for use with multiwell formats, making it ideal for automated high-throughput screening (HTS), cell proliferation and cytotoxicity assays. The homogenous assay procedure involves adding a single reagent (containing luciferase, luciferan substrate, and buffer) directly to cells cultured in serum-supplemented medium. Cell washing, removal of medium and multiple pipetting steps are not required. The system detects as few as 15 cells/well in a 384-well format in 10 minutes after adding reagent and mixing.
The homogeneous “add-mix-measure” format results in cell lysis and generation of a luminescent signal proportional to the amount of ATP present. The amount of ATP is directly proportional to the number of cells present in culture. The above-referenced assay generates a “glow-type” luminescent signal, produced by the luciferase reaction, which has a half-life generally greater than five hours, depending on cell type and medium used. The extended half-life eliminates the need to use reagent injectors and provides flexibility for continuous or batch mode processing of multiple plates. The unique homogeneous format avoids errors that may be introduced by other ATP measurement methods that require multiple steps.
HCT 116 cells (human colon carcinoma, ATCC-No. CCl-247) were cultivated in RPMI 1640 medium with GlutaMAX™ I (cell culture media that contains L-Alanyl-L-Glutamine [a stabilized a form/source of L-Glutamine] from Invitrogen, Cat-No. 61870-010), 2.5% Fetal Calf Serum (FCS, Sigma Cat-No. F4135 (FBS)); 100 Units/ml penicillin/100 μg/ml streptomycin (=Pen/Strep from Invitrogen Cat. No. 15140). For the assay the cells were seeded in 384 well plates, 1000 cells per well, in the same medium. The next day the test compounds were added in various concentrations ranging from 30 μM to 0.0015 μM (10 concentrations, 1:3 diluted). After 5 days the viability assay was done according to the instructions of the manufacturer. In brief: the cell-plate was equilibrated to room temperature for approximately 30 minutes and then reagent (containing luciferase, luciferan substrate, and buffer) was added. The contents were carefully mixed for 15 minutes to induce cell lysis. After 45 minutes the luminescent signal was measured in Victor 2, (scanning multiwell spectrophotometer, Wallac).
Medium: RPMI 1640 with cell culture media containing L-Alanyl-L-Glutamine [GlutaMAX™ I (Invitrogen, Cat-No. 61870)], 5% FCS (Sigma Cat.-No. F4135), Pen/Strep (Invitrogen, Cat No. 15140).
HCT116 (ATCC-No. CCl-247): 1000 cells in 60 μl per well of 384 well plate (Greiner 781098, μClear-plate white)
After seeding incubate plates 24 h at 37° C., 5% CO2
2nd. Day: Induction (Treatment with Compounds, 10 Concentrations):
In order to achieve a final concentration of 30 μM as highest concentration 3.5 μl of 10 mM compound stock solution were added directly to 163 μl media. Then step (d) of the dilution procedure described below, was followed.
In order to achieve the second highest to the lowest concentrations, a serial dilution with dilution steps of 1:3 was followed according to the procedure (a-d) as described here below:
(a) for the second highest concentration add 10 μl of 10 mM stock solution of compound to 20 μl dimethylsulfoxide (DMSO)
(b) dilute 8×1:3 (always 10 μl to 20 μl DMSO) in this DMSO dilution row (results in 9 wells with concentrations from 3333.3 μM to 0.51 μM)
(c) dilute each concentration 1: 47.6 (3.5 μl compound dilution to 163 μl media)
(d) add 10 μl of every concentration to 60 μl media in the cell plate […]

The target of the next test is T1, Aurora A kinase (Homo sapiens, UniProt O14965).
T1 sequence (O14965 1-403): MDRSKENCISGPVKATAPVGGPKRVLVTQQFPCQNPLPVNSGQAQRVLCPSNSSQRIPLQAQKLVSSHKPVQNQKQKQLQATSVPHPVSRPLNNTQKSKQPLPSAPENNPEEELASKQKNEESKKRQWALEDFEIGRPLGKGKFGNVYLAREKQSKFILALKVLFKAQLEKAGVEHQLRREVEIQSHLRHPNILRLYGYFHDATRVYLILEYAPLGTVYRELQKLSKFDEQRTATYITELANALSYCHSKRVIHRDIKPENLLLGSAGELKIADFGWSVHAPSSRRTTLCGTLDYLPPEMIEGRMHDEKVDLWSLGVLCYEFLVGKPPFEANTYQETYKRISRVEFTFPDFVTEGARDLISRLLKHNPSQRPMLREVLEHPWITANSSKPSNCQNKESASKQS
Put plainly: IC50 determination for inhibitors of Aurora A (ELISA-type kinase assay, GST-Histone H3 substrate). Format: biochemical. As to conditions: mutant Aurora A kinase, 30 μM ATP, 40 minutes, read-out: IC50 Aurora A kinase inhibition. How it is done: IC50 Determination for Inhibitors of Aurora A
Aurora A is a serine threonine kinase involved in spindle assembly and chromosome segregation.
The assay is a typically ELISA-type assay where substrate (GST-Histone H3) is coupled to the assay-plate and is phosphorylated by the kinase. Phosphorylation is detected by a mouse anti-Phosphopeptid mAb and an HRP-labeled anti-mouse pAb. The assay is validated for IC50-determination.
Kinase activities were measured by Enzyme-Linked Immunosorbent Assay (ELISA): Maxisorp 384-well plates (Nunc) were coated with recombinant fusion protein comprising residues 1-15 of HistoneH3 fused to the N-terminus of Glutathione-S-Transferase. Plates were then blocked with a solution of 1 mg/mL I-block (a highly purified form of casein, Tropix cat. no. T2015) in phosphate-buffered saline. Kinase reactions were carried out in the wells of the ELISA plate by combining an appropriate amount of mutant Aurora A kinase with test compound and 30 μM ATP. The reaction buffer was 10× Kinase Buffer (Cell Signaling cat. no. 9802) supplemented with 1 μg/mL I-block. Reactions were stopped after 40 minutes by addition of 25 mM EDTA. After washing, substrate phosphorylation was detected by addition of anti-phospho-Histone H3 (Ser 10) 6G3 mAb (Cell Signaling cat. no. 9706) and sheep anti-mouse pAb-HRP (Amersham cat. no. NA931V), followed by colorimetric development with TMB (3,3′,5,5′-tetramethylbenzidine from Kirkegaard & Perry Laboratories). After readout of the adsorbance, IC50 values were calculated using a non-linear curve fit (XLfit software (ID Business Solution Ltd., Guilford, Surrey, UK)).
(In general: An ELISA detects its analyte on a solid surface through an enzyme-linked reagent.)

Molecules are shown by their SMILES.

In general, IC50 refers to the concentration needed to halve the response being measured.

As for `CC(C)N1C(=O)C(C)(C)c2cc3nc(-c4n[nH]c5c4CCCC5)[nH]c3cc21` [Example 9, 5-Isopropyl-7,7-dimethyl-2-(4,5,6,7-tetrahydro-1H-indazol-3-yl)-5,7-dihydro-3H-imidazo[4,5-f]indol-6-one], the concentration for half-maximal inhibition (IC50) is 0.108 µM in the test on HCT 116 cells and 0.012 µM on Aurora A kinase.
As to `CCN1C(=O)C(C)(C)c2cc3nc(-c4n[nH]c5c4CN(S(=O)(=O)c4ccc(F)cc4)CC5)[nH]c3cc21` [Example 17, 5-Ethyl-2-[5-(4-fluoro-benzenesulfonyl)-4,5,6,7-tetrahydro-1H-pyrazolo[4,3-c]pyridin-3-yl]-7,7-dimethyl-5,7-dihydro-3H-imidazo[4,5-f]indol-6-one], the IC50 is 0.1 to 2 µM with HCT 116 cells and 0.014 µM on Aurora A kinase.
As for `CCN1C(=O)C(C)(C)c2cc3nc(-c4n[nH]c5c4CN(C(=O)c4ccc(F)cc4)CC5)[nH]c3cc21` [Example 16, 5-Ethyl-2-[5-(4-fluoro-benzoyl)-4,5,6,7-tetrahydro-1H-pyrazolo[4,3-c]pyridin-3-yl]-7,7-dimethyl-5,7-dihydro-3H-imidazo[4,5-f]indol-6-one], the IC50 in the test on HCT 116 cells was 0.1 to 2 µM; on Aurora A kinase it was 0.055 µM.
With `CCN1C(=O)C(C)(C)c2cc3nc(-c4n[nH]c5c4COCC5)[nH]c3cc21` [Example 11, 5-Ethyl-7,7-dimethyl-2-(1,4,6,7-tetrahydro-pyrano[4,3-c]pyrazol-3-yl)-5,7-dihydro-3H-imidazo[4,5-f]indol-6-one], the IC50 was 0.1 to 2 µM with HCT 116 cells and 0.016 µM at Aurora A kinase.

Source of the values: patent US20060235013A1, “Tricyclic azole derivatives” (priority 2005, published 2006).
